Reference: PubChem BioAssay (NCI)
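All cell lines were grown in 96-well plates and treated with compound for 48 hours. The concentration for 50% growth inhibition is given as GI50. TGI denotes the concentration required for complete inhibition of growth.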

Legend:
Experiment in all cases: inhibition of tumour cell growth, NCI panel, 48 h
[1] = system: 786-0 renal
[2] = system: A549 NSCLC
[3] = system: ACHN renal
[4] = system: BT-549 breast
[5] = system: CAKI-1 renal
[6] = system: COLO 205 colon
[7] = system: DU-145 prostate
[8] = system: EKVX NSCLC
[9] = system: HCC-2998 colon
[10] = system: HCT-116 colon
[11] = system: HCT-15 colon
[12] = system: HOP-62 NSCLC
[13] = system: HS 578T breast
[14] = system: HT29 colon
[15] = system: IGROV1 ovarian
[16] = system: K-562 leukemia
[17] = system: KM12 colon
[18] = system: M14 melanoma
[19] = system: MALME-3M melanoma
[20] = system: MCF7 breast
[21] = system: MDA-MB-231 breast
[22] = system: MDA-MB-435
[23] = system: MDA-N
[24] = system: MOLT-4 leukemia
[25] = system: NCI-H226 lung
[26] = system: NCI-H23 lung
[27] = system: NCI-H460 lung
[28] = system: NCI-H522 lung
[29] = system: NCI/ADR-RES ovarian
[30] = system: OVCAR-3 ovarian
[31] = system: OVCAR-5 ovarian
[32] = system: OVCAR-8 ovarian
[33] = system: PC-3 prostate
[34] = system: RPMI-8226 leukemia
[35] = system: RXF 393 renal
[36] = system: SF-268 CNS
[37] = system: SF-295 CNS
[38] = system: SF-539 CNS
[39] = system: SK-MEL-2 melanoma
[40] = system: SK-MEL-28 melanoma
[41] = system: SK-MEL-5 melanoma
[42] = system: SK-OV-3 ovarian
[43] = system: SN12C renal
[44] = system: SNB-19 CNS
[45] = system: SNB-75 CNS
[46] = system: SR leukemia
[47] = system: SW-620 colon
[48] = system: T-47D breast
[49] = system: TK-10 renal
[50] = system: U251 CNS
[51] = system: UACC-257 melanoma
[52] = system: UACC-62 melanoma
[53] = system: UO-31 renal
[54] = system: A498 renal
[55] = system: CCRF-CEM leukemia
[56] = system: HL-60(TB) leukemia
[57] = system: HOP-92 NSCLC
[58] = system: LOX IMVI melanoma
[59] = system: OVCAR-4 ovarian

CC(C)(C)OC(=O)NC(Cc1ccccc1)OCc1ccccc1 (centres undefined)
TGI [1]: 31 µM
TGI [2]: 32.8 µM
TGI [3]: 35 µM
TGI [4]: 55.2 µM
TGI [5]: 37.8 µM
TGI [6]: > 100 µM
TGI [7]: 39.6 µM
TGI [8]: 35.9 µM
TGI [9]: 43.7 µM
TGI [10]: 31.8 µM
TGI [11]: 36.1 µM
TGI [12]: 37.8 µM
TGI [13]: 51.5 µM
TGI [14]: 44.5 µM
TGI [15]: > 10 µM
TGI [16]: 66.2 µM
TGI [17]: 37.4 µM
TGI [18]: 39.7 µM
TGI [19]: 44.2 µM
TGI [20]: 35.9 µM
TGI [21]: 30.2 µM
TGI [22]: 42.7 µM
TGI [23]: 38.1 µM
TGI [24]: 77.6 µM
TGI [25]: 34.4 µM
TGI [26]: 46.3 µM
TGI [27]: 44.7 µM
TGI [28]: 26.9 µM
TGI [29]: 70.7 µM
TGI [30]: 49.3 µM
TGI [31]: 58.2 µM
TGI [32]: 39.9 µM
TGI [33]: 26.7 µM
TGI [34]: 72.6 µM
TGI [35]: 35.1 µM
TGI [36]: 36.2 µM
TGI [37]: 31.2 µM
TGI [38]: 39 µM
TGI [39]: 74.7 µM
TGI [40]: 33.1 µM
TGI [41]: 31 µM
TGI [42]: 31.4 µM
TGI [43]: 50.4 µM
TGI [44]: 37.7 µM
TGI [45]: 25.4 µM
TGI [46]: > 100 µM
TGI [47]: 34.2 µM
TGI [48]: 39.8 µM
TGI [49]: 41.2 µM
TGI [50]: > 10 µM
TGI [51]: > 10 µM
TGI [52]: 28.7 µM
TGI [53]: 35.6 µM

COc1ccccc1-c1cc(=O)c2cc(C)cnc2[nH]1
GI50 [1]: 41.4 µM
TGI [1]: > 100 µM
TGI [54]: 79.2 µM
TGI [2]: > 100 µM
TGI [3]: > 100 µM
TGI [4]: > 100 µM
TGI [5]: > 100 µM
TGI [55]: 55.2 µM
TGI [6]: 52.5 µM
TGI [7]: > 100 µM
TGI [8]: > 100 µM
TGI [9]: > 100 µM
GI50 [10]: 42.8 µM
TGI [10]: > 100 µM
TGI [11]: > 100 µM
GI50 [56]: 9.53 µM
TGI [56]: 76.2 µM
TGI [12]: > 100 µM
TGI [57]: > 100 µM
TGI [13]: > 100 µM
TGI [14]: 84.5 µM
TGI [15]: > 100 µM
TGI [16]: 61.3 µM
TGI [17]: > 100 µM
TGI [58]: > 100 µM
TGI [18]: > 100 µM
TGI [19]: > 100 µM
TGI [20]: > 100 µM
TGI [21]: > 100 µM
TGI [22]: 27.3 µM
GI50 [23]: 4.41 µM
TGI [23]: 24.9 µM
TGI [24]: > 100 µM
TGI [25]: > 100 µM
TGI [26]: > 100 µM
GI50 [27]: 32.6 µM
TGI [27]: > 100 µM
TGI [28]: > 100 µM
TGI [29]: 47.1 µM
GI50 [30]: 19.5 µM
TGI [30]: 60.2 µM
TGI [59]: > 100 µM
TGI [31]: > 100 µM
TGI [32]: > 100 µM
GI50 [33]: 27 µM
TGI [33]: > 100 µM
TGI [34]: > 100 µM
TGI [35]: > 100 µM
TGI [36]: > 100 µM
GI50 [37]: 31.1 µM
TGI [37]: > 100 µM
TGI [38]: > 100 µM
TGI [39]: > 100 µM
TGI [40]: > 100 µM
GI50 [41]: 20.4 µM
TGI [41]: > 100 µM
TGI [42]: > 100 µM
TGI [43]: > 100 µM
TGI [44]: > 100 µM
TGI [46]: > 100 µM
TGI [47]: > 100 µM
TGI [48]: > 100 µM
TGI [49]: > 100 µM
GI50 [50]: 27.8 µM
TGI [50]: > 100 µM
TGI [51]: > 100 µM
TGI [52]: > 100 µM
TGI [53]: > 100 µM

NCCSS(=O)(=O)CCN
TGI [1]: > 100 µM
TGI [54]: > 100 µM
TGI [2]: > 100 µM
TGI [3]: > 100 µM
TGI [4]: > 100 µM
TGI [5]: > 100 µM
TGI [55]: > 100 µM
TGI [6]: > 100 µM
TGI [7]: > 100 µM
TGI [8]: > 100 µM
TGI [9]: > 100 µM
TGI [10]: > 100 µM
TGI [11]: > 100 µM
TGI [56]: > 100 µM
TGI [12]: > 100 µM
TGI [57]: > 100 µM
TGI [13]: > 100 µM
TGI [14]: > 100 µM
TGI [15]: > 100 µM
TGI [16]: > 100 µM
TGI [17]: > 100 µM
TGI [58]: > 100 µM
TGI [18]: > 100 µM
TGI [19]: > 100 µM
TGI [20]: > 100 µM
TGI [21]: > 100 µM
TGI [22]: > 100 µM
TGI [23]: > 100 µM
TGI [24]: > 100 µM
TGI [25]: > 100 µM
TGI [26]: > 100 µM
TGI [27]: > 100 µM
TGI [28]: > 100 µM
TGI [29]: > 100 µM
TGI [30]: > 100 µM
TGI [59]: > 100 µM
TGI [31]: > 100 µM
TGI [32]: > 100 µM
TGI [33]: > 100 µM
TGI [34]: > 100 µM
TGI [35]: > 100 µM
TGI [36]: > 100 µM
TGI [37]: > 100 µM
TGI [38]: > 100 µM
TGI [39]: > 100 µM
TGI [40]: > 100 µM
TGI [41]: > 100 µM
TGI [42]: > 100 µM
TGI [43]: > 100 µM
TGI [44]: > 100 µM
TGI [45]: > 100 µM
TGI [46]: > 100 µM
TGI [47]: > 100 µM
TGI [48]: > 100 µM
TGI [49]: > 100 µM
TGI [50]: > 100 µM
TGI [52]: > 100 µM
TGI [53]: > 100 µM
